From publication PMC8977642, “Unsupervised Mining of HLA-I Peptidomes Reveals New Binding Motifs and Potential False Positives in the Community Database” (Frontiers in Immunology, 2022)

target: HLA-B*14:02 (Homo sapiens, UniProt P01889, A93T/A95T/C349S/D138N/D201E/E187T/E204Q/H137Y/K202T/Q94N/R155S/R180L/S121W/S35A/Y140F/Y195H/Y91C); assay: REVEAL MHC-peptide binding assay (ProImmune); conditions: REVEAL MHC-peptide binding assay, versus positive control
Excerpt: To test whether outlier peptides identified by unsupervised motif clustering are false positives or true ligands with very weak binding affinity, we performed an HLA binding assay on 59 newly identified antigens for HLA-B*14:02 ( Supplementary Table 3 , 13 outliers and 46 non-outlier peptides). […] For LPFCRPGPEGQL, this peptide was likely called an outlier because the middle arginine residue was not predicted to take part in the 9-mer binding motif by NetMHCpan (the predicted core motif was LPFGPEGQL).
Figure 3 HLA binding assay for HLA-B*14:02. Peptide synthesis and binding assay were performed by ProImmune, Ltd. (see Methods). (A) Distributions of binding scores, measured as the percentages of the binding activity compared to a positive control, for clustered peptides (n = 46) and outlier peptides (n = 13). (B) Comparison of predicted percentage ranks of eluted ligand (% rank) and binding scores. The orange and red dashed lines indicate the 2% rank and 0.5% rank thresholds for weak and strong binders, respectively.
The binding activities of selected 59 newly identified candidate antigens for HLA-B*14:02 ( Supplementary Table 3 ) were assessed using the REVEAL MHC-peptide binding assay provided by ProImmune, Ltd. (Oxford, UK). Peptides were synthesized and quality checked using MALDI-TOF mass spectrometry by ProImmune, Ltd. (Oxford, UK). Binding activities were reported as percentage relative to the affinity of a positive control (a known high-affinity T cell epitope for HLA-B*14:02). According to the experiment report provided by the company, the standard error of the reported affinities is 3 percentage points.

Sequence	HLA binding activity (in words)
LPFCRPGPEGQL [candidate antigen for HLA-B*14:02, outlier]	high binding affinity
LRNGGHFVI [candidate antigen for HLA-B*14:02, outlier]	high binding affinity

same assay, conditions: relative to a known high-affinity T cell epitope for HLA-B*14:02; synthesized peptides; standard error 3 percentage points

Sequence	Binding Test (binding activity as percentage of positive control) [%]
CEVTHQGL [candidate antigen for HLA-B*14:02, non-outlier]	25.4
LTGDIHAITAA [candidate antigen for HLA-B*14:02, outlier]	0.2
CDFVHQAL [candidate antigen for HLA-B*14:02, non-outlier]	41.7
QTWWHGVL [candidate antigen for HLA-B*14:02, non-outlier]	74.6
GLGILDPVLL [candidate antigen for HLA-B*14:02, non-outlier]	0.1
AAPARVSVA [candidate antigen for HLA-B*14:02, outlier]	0.2
LPFCRPGPEGQL [candidate antigen for HLA-B*14:02, outlier]	75.9
DQVGGLGR [candidate antigen for HLA-B*14:02, non-outlier]	0.2
YQILHECL [candidate antigen for HLA-B*14:02, non-outlier]	50.1
LPFCHSEL [candidate antigen for HLA-B*14:02, non-outlier]	60.2
LNQRAQAVL [candidate antigen for HLA-B*14:02, outlier]	3.1
LPIIHCTL [candidate antigen for HLA-B*14:02, non-outlier]	56.4
DLPEHAVL [candidate antigen for HLA-B*14:02, non-outlier]	14.2
QEVKQGKLL [candidate antigen for HLA-B*14:02, non-outlier]	0.1
PLGMNQLQAL [candidate antigen for HLA-B*14:02, non-outlier]	0.3
QQFAHPPL [candidate antigen for HLA-B*14:02, non-outlier]	82.8
SPTCHACL [candidate antigen for HLA-B*14:02, non-outlier]	19.8
LGFTHHCL [candidate antigen for HLA-B*14:02, non-outlier]	47.6
SQYQRLLCI [candidate antigen for HLA-B*14:02, non-outlier]	80.3
IRLENEIQ [candidate antigen for HLA-B*14:02, non-outlier]	0.1

Sequence	Binding Test (binding activity as percentage of positive control) [%]
ESGPSIVHRKCF [candidate antigen for HLA-B*14:02, outlier]	0.1
SSSKGSLGGGF [candidate antigen for HLA-B*14:02, non-outlier]	0.2
DQFLKICL [candidate antigen for HLA-B*14:02, non-outlier]	62.6
SRLDSVLLL [candidate antigen for HLA-B*14:02, non-outlier]	43.9
QGLSILLPKI [candidate antigen for HLA-B*14:02, outlier]	0
TYDDATKTF [candidate antigen for HLA-B*14:02, outlier]	0.1
QPAEHLQL [candidate antigen for HLA-B*14:02, non-outlier]	49.4
ETASDLLLHSAL [candidate antigen for HLA-B*14:02, non-outlier]	59.3
DRYLPGETF [candidate antigen for HLA-B*14:02, non-outlier]	61.4
HPASHPEL [candidate antigen for HLA-B*14:02, non-outlier]	29.9
REQFSSRGS [candidate antigen for HLA-B*14:02, outlier]	0
LSYVSIMAAI [candidate antigen for HLA-B*14:02, non-outlier]	0.2
YATLHHVI [candidate antigen for HLA-B*14:02, non-outlier]	42.2
LSSLSLPILI [candidate antigen for HLA-B*14:02, outlier]	0.1
CHIYHHAL [candidate antigen for HLA-B*14:02, non-outlier]	55.5
AQGGVLPNI [candidate antigen for HLA-B*14:02, outlier]	0.2
NQFQRQAAV [candidate antigen for HLA-B*14:02, non-outlier]	63.6
QQILRDAL [candidate antigen for HLA-B*14:02, non-outlier]	56.2
CRFEGQFSI [candidate antigen for HLA-B*14:02, non-outlier]	63.5
VAPGKDLTK [candidate antigen for HLA-B*14:02, non-outlier]	0

Sequence	Binding Test (binding activity as percentage of positive control) [%]
HQITHQAM [candidate antigen for HLA-B*14:02, non-outlier]	52.4
IHTLVESL [candidate antigen for HLA-B*14:02, non-outlier]	0.2
TRIEKRIVI [candidate antigen for HLA-B*14:02, non-outlier]	54.9
CQVTHISL [candidate antigen for HLA-B*14:02, non-outlier]	56.7
LLSPQQTI [candidate antigen for HLA-B*14:02, non-outlier]	0.8
LNVLHLDT [candidate antigen for HLA-B*14:02, non-outlier]	5
AVSMIPPLLL [candidate antigen for HLA-B*14:02, outlier]	0.2
DNAVHCVI [candidate antigen for HLA-B*14:02, non-outlier]	26.2
CVTIHEAL [candidate antigen for HLA-B*14:02, non-outlier]	32.1
QQGTHLSL [candidate antigen for HLA-B*14:02, non-outlier]	47.7
TYDDATKTFTVTE [candidate antigen for HLA-B*14:02, non-outlier]	0
FGYSRHTPF [candidate antigen for HLA-B*14:02, non-outlier]	24.8
DQYKRETI [candidate antigen for HLA-B*14:02, non-outlier]	33.9
QQLCHQTL [candidate antigen for HLA-B*14:02, non-outlier]	56.8
SCRVHKII [candidate antigen for HLA-B*14:02, non-outlier]	8.3
QVWGTLTSL [candidate antigen for HLA-B*14:02, non-outlier]	0.1
LRNGGHFVI [candidate antigen for HLA-B*14:02, outlier]	61.2
QAYMNQRKL [candidate antigen for HLA-B*14:02, non-outlier]	0.2
